Measured values as given in US20070191493A1, “Use of n-alkanols as activators of the cftr channel” (priority 2003, published 2007).
Blank lines part the entries; values can stand above or below the molecule they belong to.

Tests used:
[1] = biological target: T1, CFTR channel (Homo sapiens, UniProt P13569); assay: 125I radioactive iodide efflux in CHO-CFTR(+) cells; format: cell-based; design: expressed in transfected cells; host or cells: CHO (Chinese hamster ovary) cells, CHO-CFTR(+); settings: for activation of CFTR (125I efflux), in words: CHO-CFTR(+) cells, n-alkanols 1 mM, FSK 1 μM, A23187 2 μM, α-GA 10 and 100 μM
Protocol: The cells are cultured in 24-well plates with a dilution to 1/10 after passage. […] The operation is repeated every 30 s for 2 to 6 min. […] All the samples are counted in a gamma counter (Kontron). The precipitated proteins are solubilized in 0.1N NaOH and quantified using a calorimetric test.
(§1) The tracer contained in the cell layer at the beginning of the efflux is calculated as the sum of the samples and of the extracts counted. The efflux curves are constructed by expressing the percentage of the content remaining in the cell layer (I %) with respect to time. The stimulated or nonstimulated efflux rate constants (k, min^−1) are determined by smoothing the efflux curves to a monoexponential function I %=100*exp(−kt) using a linear regression of the neperian logarithm of the data, k is used to calculate the iodide released into the medium with respect to time. The hypothesis is made that, in the presence of a stimulator, the efflux is the sum of two iodide effluxes occurring in parallel: a basal efflux and a stimulated efflux characterized, respectively, by the constants kb and ks. The total net efflux is then described by the equation It^%=100*(1−exp(−ktt)) where kt is the sum of kb and ks. Finally, ks calculated as kt−kb is used to establish a dose-response relationship for antagonists. The data is expressed as means ±SD, and the t-test is used to determine the significances. The concentration-response curves for agonists or for antagonists are smooth using the hyperbolic equation Y=Ymax*X/(EC5C+X), where Y is the response. Y begins at the basal level and progresses to the plateau (Ymax), X is the concentration and the half-effect values (EC are calculated using GraphPad Prism v3.0 (GraphPad software)).

[2] = test system: CHO-CFTR(-) cells; assay: 125I iodide efflux in CHO-CFTR(-) control cells that do not express CFTR; format: cell-based, Chinese hamster; settings: octan-1-ol 0.1 to 5 mM, FSK 5 μM, A23187 2 μM
[3] = test system: intracellular cAMP level; assay: total intracellular cAMP assay in CHO-CFTR(+) cells; format: cell-based, Chinese hamster; settings: 5 min, FSK 1 or 5 μM, alcohols 1 mM
Protocol: The CHO cells are cultured for four days in a 24-well culture plate. On the fourth day of culture, each well is rinsed twice with 500 μl of medium B, and 500 μl of this buffer containing the molecule to be tested are added to each well. After incubation at 37° C. for 5 min, the reaction is stopped by adding a cell lysis buffer. The cell lysis is verified with Trypan blue. The amount of cAMP contained in the cells is determined using the Enzyme Immuno Assay kit (Amersham Biotechnology). The cAMP level is expressed in pmol/well ±SD.

[4] = biological target: T2, human CFTR channel endogenously expressed in Calu-3 (Homo sapiens, UniProt P13569); assay: iodide efflux in Calu-3 human bronchial epithelial cells; format: cell-based; settings: Calu-3; 1 hour treatment; glibenclamide 100 μM, DIDS 500 μM
T2 construct: human pulmonary epithelial cells endogenously expressing the CFTR channel; host or cells: Calu-3 human pulmonary epithelial cells
Protocol: (§2) The CFTR studies are also carried out on Calu-3 cells (ATCC No. HTB-55), which are human pulmonary epithelial cells endogenously expressing the CFTR channel. These cells are cultured under the same culture conditions as the CHO cells. The study of the mutated CFTR channel is carried out on JME/CF15 cells, which are epithelial cells extracted from respiratory airways of patients suffering from cystic fibrosis (homozygous ΔF508) (Jefferson et al., 1990). These cells therefore express the ΔF508 mutated CFTR channel. These cells are cultured under the same conditions as above, but the culture medium is supplemented with a hormone mixture containing: adenine (180 μM), insulin (5 μg/ml), transferrin (5 μg/ml), hydrocortisone (1.1 μM), triiodothyronine (2 nM), epinephrine (5.5 μM), epidermal growth factor (1.64 nM).
(§3) This technique makes it possible to follow the kinetics of exit of the ^125I radioactive iodide. The cells are cultured in 24-well plates with a dilution to 1/10 after passage. On the fourth day of culture, the drugs to be tested are dissolved in solution according to the desired concentration, at 37° C., in medium B, at pH 7.4, containing, in mM: 137 NaCl, 5.36 KCl, 0.8 mM MgCl2, 1.8 mM CaCl2, 5.5 glucose and 10 HEPES-NaOH. The wells are washed 4 times with 500 μl of medium B. The solution is subsequently replaced with 500 μl of loading solution containing 1 μM KI and 0.5 μCi of ^125INa/ml for 30 min. The kinetics of exit of ^125I are determined after having eliminated the loading solution and washed the wells 4 times with 500 μl of medium B. For the ^125I exit kinetics, 500 μl of medium B containing or not containing the molecules to be tested are incubated for 30 sec in the wells and recovered in a hemolysis tube, so as to be replaced with 500 μl of medium B containing or not containing the molecules to be tested. The operation is repeated every 30 s for 2 to 6 min. At the end of the efflux, the intracellular ions are extracted by adding 1 ml of trichloroacetic acid (7.5%) to the cell layer. All the samples are counted in a gamma counter (Kontron). The precipitated proteins are solubilized in 0.1N NaOH and quantified using a calorimetric test.
as §1, with “The concentration-response curves for agonists or for antagonists are smooth using the hyperbolic equation Y=Ymax*X/(EC5C+X), where Y is the response.” left out

[5] = biological target: T3, ΔF508 mutated CFTR channel (Homo sapiens, UniProt P13569, DEL508-508); assay: iodide efflux in JME/CF15 human bronchial epithelial cells from cystic fibrosis patients; format: cell-based; settings: glibenclamide 100 μM, DIDS 500 μM
T3 construct: epithelial cells extracted from respiratory airways of patients suffering from cystic fibrosis (homozygous ΔF508); endogenous in cells; host or cells: JME/CF15 human airway epithelial cells (homozygous ΔF508)
Protocol: as §2, §3
as §1, with “The concentration-response curves for agonists or for antagonists are smooth using the hyperbolic equation Y=Ymax*X/(EC5C+X), where Y is the response.” left out

[6] = biological target: T1, CFTR channel; assay: whole-cell patch-clamp in CHO-CFTR(+) cells; format: cell-based; design: expressed in transfected cells; host or cells: CHO (Chinese hamster ovary) cells, CHO-CFTR(+); settings: glibenclamide 100 μM
Excerpt: The patch-clamp technique consists in applying a glass pipette or a glass microelectrode to the surface of the cell. By applying slight touch, it is possible to cause the membrane to adhere to the glass. A small piece of membrane (patch) is thus isolated at the end of the pipette. This is the principle of patch-clamp (O. P. Hamill et al., Pflügers Arch., 1981, 391, 85-100; R. Penner, A Practical Guide to Patch Clamping, 1995, In Single Channel Recording, 2nd edition (Eds. B. Sakmann et al.) Plenum Press, New York, 3-30). To do this, the patch-clamp pipette must have a tip of the order of 1 μm in diameter and a resistance of the order of 1-5 MΩ. The resistance of a pipette or of a microelectrode makes it possible to assess the fineness of the tip: the greater the resistance, the finer the tip or the more the electrode is blocked. […] Interactions between the membrane and the glass will form, aided by a slight suction or negative pressure in the pipette. The quality of this interaction (or sealing) is also assessed by measuring the resistance between the glass and the membrane. To measure overall currents in the whole cell configuration, a sealing resistance of 1 GΩ is sufficient.
More specifically, culture dishes (cell support) are placed in an experimentation cell (volume 1 ml) on the platform of an inverted microscope (Nikon) equipped with phase-contrast lighting. The whole-cell configuration is used for recording the cell currents (Hamill et al., 1981). The experiments are carried out at ambient temperature (20-22° C.). The currents are amplified with an Axopatch 200B amplifier (Axon Instrument Ltd) having a 2-5 kHz low-pass filter (Bessel 6-pole filter), and recorded on the hard disk of a PC after digitization at 10-25 kHz. The pipettes are produced from glass tubes 1 mm in diameter (Clark Electromedical Instrument) in four steps with a horizontal drawing device (Bruwn Flaming 97, CA).
The pipettes, filled with an intracellular solution containing, in mM: 60 KCl; 80 NMDG ([…]); 10 HEPES; 5 EGTA; 1 CaCl2; 4 MgATP; 0.2 Na3GTP; pH 7.4, titrated with KOH), having a resistance of 5 MΩ. The potentials are expressed as the difference between the potential of the patch electrode and that of the bath. In the whole-cell configuration, they represent the membrane potential of the cell. The junction potentials that form between the recording electrode and the extracellular medium are eliminated before the contact of the electrode with the cell. […] The current-voltage relationships in the stationary state are determined using slow voltage ramps (20 mV/.s) under an imposed voltage condition. […]

[7] = test system: CHO cells; assay: ATP-induced calcium response (cellular uncoupling) in CHO cells; format: cell-based, Chinese hamster; settings: α-GA 10 to 100 μM, octan-1-ol 1 mM
Protocol: The Ca^2+ measurements are carried out in the presence of fura-2 (impermeant fluorescent probe) which binds […]. The cells are incubated in serum-free DMEM/F12 culture medium in the presence of the permeant form of fura-2 (fura-2/AM, 2.5 μM) for 1 h at 37° C. The cells, placed on the platform of an epifluorescent microscope (Olympus) (20× objective), are perfused with the solutions to be tested (e.g. ATP, octanol). They are sequentially illuminated at 340 nm and 380 nm and the fluorescence emitted (F) is measured at 510 nm. It is detected via a 12-bit CCD camera (Sony) connected to a data processing computer unit (TILL Photonics). The intracellular Ca^2+ concentration [Ca^2+]i is calculated using the Grynckiewicz equation (Grynckiewicz et al., 1985): [Ca^2+]i=Kdi *(R−Rmin/Rmax−R), based on the ratiometric analysis R (340/380 nm) of the fluorescence (TILL Vision); Rmax and Rmin denote the ratio of fluorescence measured in the presence or in the absence of Ca^2+.

T1 sequence (P13569 whole entry): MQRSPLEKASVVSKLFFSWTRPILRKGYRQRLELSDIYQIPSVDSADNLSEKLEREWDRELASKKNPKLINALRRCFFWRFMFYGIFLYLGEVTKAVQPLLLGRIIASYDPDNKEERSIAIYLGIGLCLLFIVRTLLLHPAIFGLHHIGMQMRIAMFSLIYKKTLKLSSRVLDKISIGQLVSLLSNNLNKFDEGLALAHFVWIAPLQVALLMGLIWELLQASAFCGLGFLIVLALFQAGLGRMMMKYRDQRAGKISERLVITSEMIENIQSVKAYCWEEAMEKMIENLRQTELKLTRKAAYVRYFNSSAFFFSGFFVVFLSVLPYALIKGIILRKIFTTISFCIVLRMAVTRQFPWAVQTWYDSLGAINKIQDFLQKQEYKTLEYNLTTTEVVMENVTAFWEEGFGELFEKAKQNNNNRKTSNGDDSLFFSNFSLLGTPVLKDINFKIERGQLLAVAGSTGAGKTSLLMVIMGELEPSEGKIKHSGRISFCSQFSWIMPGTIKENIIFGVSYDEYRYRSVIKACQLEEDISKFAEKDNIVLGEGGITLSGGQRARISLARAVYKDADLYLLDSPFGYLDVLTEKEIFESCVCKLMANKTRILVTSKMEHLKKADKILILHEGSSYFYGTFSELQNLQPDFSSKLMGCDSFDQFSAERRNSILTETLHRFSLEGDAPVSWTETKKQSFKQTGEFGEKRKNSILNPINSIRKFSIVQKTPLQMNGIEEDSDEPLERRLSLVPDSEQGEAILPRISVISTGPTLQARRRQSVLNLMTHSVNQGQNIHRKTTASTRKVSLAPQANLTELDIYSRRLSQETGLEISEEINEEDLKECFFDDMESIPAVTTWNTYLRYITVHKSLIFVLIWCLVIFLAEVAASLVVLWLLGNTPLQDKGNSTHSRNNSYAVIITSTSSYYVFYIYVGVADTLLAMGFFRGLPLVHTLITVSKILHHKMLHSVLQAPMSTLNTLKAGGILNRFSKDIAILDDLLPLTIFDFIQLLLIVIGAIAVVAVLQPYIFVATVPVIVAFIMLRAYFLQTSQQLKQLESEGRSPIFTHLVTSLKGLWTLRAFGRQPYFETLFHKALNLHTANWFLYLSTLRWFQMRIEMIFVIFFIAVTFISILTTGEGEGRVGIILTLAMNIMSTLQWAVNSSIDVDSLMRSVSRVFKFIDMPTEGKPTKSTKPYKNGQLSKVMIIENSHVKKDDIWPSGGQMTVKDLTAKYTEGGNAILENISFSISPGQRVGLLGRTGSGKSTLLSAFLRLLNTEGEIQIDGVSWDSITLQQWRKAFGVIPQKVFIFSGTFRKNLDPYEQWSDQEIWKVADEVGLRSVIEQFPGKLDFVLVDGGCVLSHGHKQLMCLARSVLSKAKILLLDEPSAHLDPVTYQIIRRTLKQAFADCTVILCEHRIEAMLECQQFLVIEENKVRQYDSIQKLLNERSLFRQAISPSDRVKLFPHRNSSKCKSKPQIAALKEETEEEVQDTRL
T2 sequence (P13569 whole entry): as above
T3 sequence (P13569 with tags, fused parts or gaps DEL508-508): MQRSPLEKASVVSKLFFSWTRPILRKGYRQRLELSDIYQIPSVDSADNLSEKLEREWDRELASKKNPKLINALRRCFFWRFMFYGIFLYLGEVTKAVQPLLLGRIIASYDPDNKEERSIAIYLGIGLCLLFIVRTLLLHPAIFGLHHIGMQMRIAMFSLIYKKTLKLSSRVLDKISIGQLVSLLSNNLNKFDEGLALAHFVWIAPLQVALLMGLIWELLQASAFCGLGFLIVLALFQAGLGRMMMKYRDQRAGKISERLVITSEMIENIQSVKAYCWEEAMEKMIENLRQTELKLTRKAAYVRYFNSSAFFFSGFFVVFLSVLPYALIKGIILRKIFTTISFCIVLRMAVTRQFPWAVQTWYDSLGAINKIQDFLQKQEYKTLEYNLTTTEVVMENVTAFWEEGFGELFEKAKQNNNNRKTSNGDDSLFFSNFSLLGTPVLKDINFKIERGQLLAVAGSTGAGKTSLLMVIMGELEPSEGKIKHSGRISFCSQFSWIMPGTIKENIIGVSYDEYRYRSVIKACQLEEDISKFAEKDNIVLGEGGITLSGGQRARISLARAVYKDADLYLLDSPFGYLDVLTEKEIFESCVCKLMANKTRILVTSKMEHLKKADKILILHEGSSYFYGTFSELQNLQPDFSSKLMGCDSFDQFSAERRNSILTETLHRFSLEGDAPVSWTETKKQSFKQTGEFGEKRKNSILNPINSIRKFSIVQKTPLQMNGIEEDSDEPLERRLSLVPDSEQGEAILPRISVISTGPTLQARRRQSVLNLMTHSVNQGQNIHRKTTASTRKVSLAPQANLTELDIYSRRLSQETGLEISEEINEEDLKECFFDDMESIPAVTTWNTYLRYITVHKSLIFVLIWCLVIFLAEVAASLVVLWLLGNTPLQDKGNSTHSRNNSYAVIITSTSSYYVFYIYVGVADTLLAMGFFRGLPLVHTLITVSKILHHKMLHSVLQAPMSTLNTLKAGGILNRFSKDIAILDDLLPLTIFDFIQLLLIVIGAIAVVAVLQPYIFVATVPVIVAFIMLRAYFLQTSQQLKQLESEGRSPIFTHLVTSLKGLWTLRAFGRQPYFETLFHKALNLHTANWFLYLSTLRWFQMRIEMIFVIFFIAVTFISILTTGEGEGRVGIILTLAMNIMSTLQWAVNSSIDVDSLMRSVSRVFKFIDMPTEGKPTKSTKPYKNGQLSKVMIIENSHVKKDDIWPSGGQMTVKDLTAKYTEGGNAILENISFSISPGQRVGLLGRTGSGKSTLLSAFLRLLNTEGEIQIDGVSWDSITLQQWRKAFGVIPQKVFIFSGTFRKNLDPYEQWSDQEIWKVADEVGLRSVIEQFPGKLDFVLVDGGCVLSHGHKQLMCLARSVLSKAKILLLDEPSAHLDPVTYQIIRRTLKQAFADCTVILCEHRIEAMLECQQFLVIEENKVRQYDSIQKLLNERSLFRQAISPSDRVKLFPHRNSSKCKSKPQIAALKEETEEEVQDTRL

Compound: CNc1ccc2oc(C[C@H]3O[C@@]4(CC[C@H]3C)O[C@H]([C@H](C)C(=O)c3ccc[nH]3)[C@H](C)C[C@H]4C)nc2c1C(=O)O [A23187, reference compound]
- activation of CFTR (125I efflux), in words [1]: has no effect
- effect on basal level of 125I efflux in cells not expressing CFTR [2]: has no effect

- activation of CFTR (125I efflux), in words [1]: do not activate the CFTR channel
Compound: CCO [ethanol, reference compound]
- effect on intracellular cAMP level [3]: neither octan-1-ol, hexan-1-ol or ethanol modifies the basal cAMP level

Compound: COc1ccc(Cl)cc1C(=O)NCCc1ccc(S(=O)(=O)NC(=O)NC2CCCCC2)cc1 [glibenclamide, reference compound]
- effect of inhibitor on octan-1-ol-activated efflux [4]: strongly blocked
- effect of inhibitor on activated 125I efflux ([1]; CHO-CFTR(+) cells stimulated by octan-1-ol 1 mM, FSK 1 μM or both, glibenclamide 100 μM, H-89 30 μM, PKC inhibitor): completely inhibited
- effect of inhibitor on CFTR-ΔF508 activation by octan-1-ol [5]: inhibited
- effect of glibenclamide on FSK- or octan-1-ol-induced current [6]: completely inhibited

- activation of CFTR (125I efflux), in words [1]: significantly activates the CFTR channel
Compound: CCCCCCO [hexan-1-ol]
- order of activation of CFTR by n-alkanols ([1]; 1 mM, 125I efflux or patch-clamp): hexan-1-ol<heptan-1-ol<octan-1-ol<octan-2-ol<decan-1-ol
- effect on intracellular cAMP level [3]: neither octan-1-ol, hexan-1-ol or ethanol modifies the basal cAMP level

- activation of CFTR (125I efflux), in words [1]: no effect
Compound: CC1(C)[C@@H](O)CC[C@]2(C)[C@H]3C(=O)C=C4[C@H]5C[C@@](C)(C(=O)O)CC[C@]5(C)CC[C@@]4(C)[C@]3(C)CC[C@@H]12 [α-GA, 18-alpha glycerrhetinic acid, reference compound]
- cellular uncoupling shown by ATP-induced calcium response [7]: clearly uncouples the cells
